In patent EP4644384A1 (Shanghai Lichun Biotech Co., Ltd., priority 2023, dated 2024):

Target: T1, CYP11A1 (Homo sapiens, UniProt P05108)
T1 construct: host or cells: NCI-H295R human adrenocortical cancer cells
T1 sequence (P05108 40-521): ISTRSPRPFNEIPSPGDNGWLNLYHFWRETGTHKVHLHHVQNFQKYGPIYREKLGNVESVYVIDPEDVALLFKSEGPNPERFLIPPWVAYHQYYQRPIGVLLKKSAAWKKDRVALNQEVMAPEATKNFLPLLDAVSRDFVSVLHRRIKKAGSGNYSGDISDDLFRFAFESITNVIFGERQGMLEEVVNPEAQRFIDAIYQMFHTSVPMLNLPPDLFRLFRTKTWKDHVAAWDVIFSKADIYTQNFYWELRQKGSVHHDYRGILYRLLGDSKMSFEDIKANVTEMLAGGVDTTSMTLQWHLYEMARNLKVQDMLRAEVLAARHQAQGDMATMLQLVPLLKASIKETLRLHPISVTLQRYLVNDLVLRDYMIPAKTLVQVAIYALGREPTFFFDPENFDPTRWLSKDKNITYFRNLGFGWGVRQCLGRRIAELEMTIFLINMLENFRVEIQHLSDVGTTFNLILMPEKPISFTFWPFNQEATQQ
Assay: Pregnenolone synthesis inhibition in NCI-H295R cells (pregnenolone ELISA of culture supernatant)
Format: cell-based
Conditions: 24 hours incubation, pregnenolone in culture supernatant by ELISA
Description: Conversion of cholesterol into pregnenolone is a first rate-limiting step in the synthesis of all steroid hormones in vertebrates. This conversion reaction involves a two-step continuous monooxygenation reaction catalyzed by the unique cytochrome P450scc (CYP11A) to produce C22-hydroxycholesterol and C20,C22-dihydroxycholesterol in order, followed by CYP11A1-catalyzed breakage of a C20-C22 carbon-carbon single bond in C20,C22-dihydroxycholesterol to produce one molecule of pregnenolone and one molecule of 4-methylvaleraldehyde. Therefore, the inhibitory effect of a compound on CYP11A1 was identified by detecting the ability of the compound to inhibit pregnenolone synthesis.
The ability of different compounds to inhibit pregnenolone biosynthesis was determined by detecting the concentration of pregnenolone (Abnova pregnenolone ELISA kit, KA1912) using enzyme-linked immunosorbent assay (ELISA), so as to detect the ability of the compounds to inhibit CYP11A1. […] In order to determine the half-maximal inhibitory concentrations (IC50) of CYP11A1 inhibition by different compounds, the compounds were added during NCI-H295R cell culture, and after incubation, the concentration of pregnenolone in the culture supernatant was determined.
95 µl of NCI-H295R cells were taken and cultured overnight with a specialized cell culture medium (Procell, CM-0399) in a 96-well culture plate in a cell incubator at 37°C and 5% CO2. 5 µl/well of a DMSO (Sigma, D8418) solution of the compounds to be tested at different concentrations was then added, followed by continued incubation for 24 hours. The final concentrations of the compounds to be tested were 1000 nM, 333.33 nM, 111.11 nM, 37.04 nM, 12.35 nM, 4.12 nM, 1.37 nM, 0.46 nM, and 0 nM. After the incubation was complete, the cells were centrifuged, 80 µl/well of the cell culture supernatant was obtained and 1 : 8 diluted with the cell culture medium, and the concentration of pregnenolone therein was then determined by ELISA method. During ELISA detection, a pregnenolone standard was used to generate a standard curve. The experiment was carried out with replicate wells. The ELISA well plate had been coated with an anti-pregnenolone rabbit polyclonal antibody. In ELISA plate strips, 50 µl/well of the diluted culture supernatant or standard solution or reference substance was added, followed by 100 µl of a pregnenolone-HRP complex solution, and the plate was incubated for 1 hour at room temperature on a plate shaker (QILINBEIER, QB-9002) at 200 rpm. Then, the plate was washed three times with a cleaning solution, with 300 µl each time, and patted dry on absorbent paper. 150 µl of a TMB substrate was added. The plate was incubated on the plate shaker for 10-15 minutes at room temperature, and 50 µl of a stop solution was then added. The absorbance was measured at 450 nm by a microplate reader (PerkinElmer, 2105). The IC50 value was calculated by using GraphPad Prism software. [formula]

IC50 [nM] | Compound
12 | Cn1c(CN2Cc3ccc(C(F)(F)F)cc3C2)ccc(OCC2CCN(S(C)(=O)=O)CC2)c1=O [Compound 13, 1-methyl-3-((1-(methylsulfonyl)piperidine-4-yl)methoxy)-6-((5-(trifluoromethyl)isoindolin-2-yl)methyl)pyridin-2(1H)-one]
7.8 | [2H]C([2H])([2H])n1c(CN2Cc3ccc(C(F)(F)F)cc3C2)ccc(OCC2CCN(S(=O)(=O)C3CC3)CC2)c1=O [Compound 19, 3-((1-(cyclopropylsulfonyl)piperidine-4-yl)methoxy)-1-(methyl-d3)-6-((5-(trifluoromethyl)isoindolin-2-yl)methyl)pyridin-2(1H)-one]
14.8 | CCn1c(CN2Cc3ccccc3C2)ccc(OCC2CCN(S(=O)(=O)NC)CC2)c1=O [Compound 29, 4-(((1-ethyl-6-(isoindolin-2-ylmethyl)-2-oxo-1,2-dihydropyridin-3-yl)oxy)methyl)-N-methylpiperidine-1-sulfonamide]
2.21 | Cn1c(CN2Cc3ccc(C(F)(F)F)cc3C2)ccc(OCC2CCN(S(=O)(=O)C3CC3)CC2)c1=O [Compound 21, 3-((1-(cyclopropylsulfonyl)piperidine-4-methyl)methoxy)-1-methyl-6-((5-(trifluoromethyl)isoindolin-2-yl)methyl)pyridin-2(1H)-one]
0.136 | CCn1c(CN2Cc3ccccc3C2)ccc(OCC2CCN(S(=O)(=O)C(F)(F)F)CC2)c1=O [Compound 27, 1-ethyl-6-(isoindolin-2-ylmethyl)-3-((1-((trifluoromethyl)sulfonyl)piperidine-4-yl)methoxy)pyridin-2(1H)-one]
4.75 | [2H]C([2H])([2H])n1c(CN2Cc3ccc(C(F)(F)F)cc3C2)ccc(OCC2CCN(S(C)(=O)=O)CC2)c1=O [Compound 14, 1-(methyl-d3)-3-((1-(methylsulfonyl)piperidine-4-yl)methoxy)-6-((5-(trifluoromethyl)isoindolin-2-yl)methyl)pyridin-2(1H)-one]
1.98 | CN(C)S(=O)(=O)N1CCC(COc2ccc(CN3Cc4ccc(F)cc4C3)n(C)c2=O)CC1 [Compound 11, 4-(((6-((5-fluoroisoindolin-2-yl)methyl)-1-methyl-2-oxo-1,2-dihydropyridin-3-yl)oxy)methyl)-N,N-dimethylpiperidine-1-sulfonamide]
8.49 | Cn1c(CN2Cc3ccc(F)cc3C2)ccc(OCC2CCN(S(C)(=O)=O)CC2)c1=O [Compound 5, 6-((5-fluoroisoindolin-2-yl)methyl)-1-methyl-3-((1-(methylsulfonyl)piperidine-4-yl)methoxy)pyridin-2(1H)-one]
9.34 | CC(=O)N1CCC(COc2ccc(CN3Cc4ccccc4C3)n(C)c2=O)CC1 [Compound 7, 3-((1-acetylpiperidine-4-yl)methoxy)-6-(isoindolin-2-ylmethyl)-1-methylpyridin-2(1H)-one]
1.94 | [2H]C([2H])([2H])n1c(CN2Cc3ccc(F)cc3C2)ccc(OCC2CCN(S(=O)(=O)C3CC3)CC2)c1=O [Compound 20]
3.99 | [2H]C([2H])([2H])n1c(CN2Cc3ccc(F)cc3C2)ccc(OCC2CCN(S(=O)(=O)C3COC3)CC2)c1=O [Compound 15, 6-((5-fluoroisoindolin-2-yl)methyl)-1-(methyl-d3)-3-((1-(oxetan-3-ylsulfonyl)piperidine-4-yl)methoxy)pyridin-2(1H)-one]
2.25 | Cn1c(CN2Cc3ccccc3C2)ccc(OCC2CCN(S(=O)(=O)C3CC3)CC2)c1=O [Compound 3, 3-((1-(cyclopropylsulfonyl)piperidine-4-yl)methoxy)-6-(isoindolin-2-ylmethyl)-1-methylpyridin-2(1H)-one]
222 | CS(=O)(=O)N1CCC(COc2ccc(CN3Cc4ccccc4C3)[nH]c2=O)CC1 [Compound 2, 6-(isoindolin-2-ylmethyl)-3-((1-(methylsulfonyl)piperidine-4-yl)methoxy)pyridin-2(1H)-one]
3.57 | Cn1c(CN2Cc3ccc(C(F)(F)F)cc3C2)ccc(OCC2CCN(S(=O)(=O)C3COC3)CC2)c1=O [Compound 23, 1-methyl-3-((1-(oxetan-3-ylsulfonyl)piperidine-4-yl)methoxy)-6-((5-(trifluoromethyl)isoindolin-2-yl)methyl)pyridin-2(1H)-one]
4.86 | [2H]C([2H])([2H])n1c(CN2Cc3ccc(F)cc3C2)ccc(OCC2CCN(S(C)(=O)=O)CC2)c1=O [Compound 24, 6-((5-fluoroisoindolin-2-yl)methyl)-1-(methyl-d3)-3-((1-(methylsulfonyl)piperidine-4-yl)methoxy)pyridin-2(1H)-one]
8.61 | CN(C)S(=O)(=O)N1CCC(COc2ccc(CN3Cc4ccc(C(F)(F)F)cc4C3)n(C)c2=O)CC1 [Compound 22, N,N-dimethyl-4-(((1-methyl-2-oxo-6-((5-(trifluoromethyl)isoindolin-2-yl)methyl)-1,2-dihydropyridin-3-yl)oxy)methyl)piperidine-1-sulfonamide]
1.74 | CN(C)S(=O)(=O)N1CCC(COc2ccc(CN3Cc4ccccc4C3)n(C)c2=O)CC1 [Compound 4, 4-(((6-(isoindolin-2-ylmethyl)-1-methyl-2-oxo-1,2-dihydropyridin-3-yl)oxy)methyl)-N,N-dimethylpiperidine-1-sulfonamide]
3.76 | [2H]C([2H])([2H])n1c(CN2Cc3ccccc3C2)ccc(OCC2CCN(S(C)(=O)=O)CC2)c1=O [Compound 17, 6-(isoindolin-2-ylmethyl)-1-(methyl-d3)-3-((1-(methylsulfonyl)piperidine-4-yl)methoxy)pyridin-2(1H)-one]
3.57 | Cn1c(CN2Cc3ccc(F)cc3C2)ccc(OCC2CCN(S(=O)(=O)C3COC3)CC2)c1=O [Compound 12, 6-((5-fluoroisoindolin-2-yl)methyl)-1-methyl-3-((1-(oxetan-3-ylsulfonyl)piperidine-4-yl)methoxy)pyridin-2(1H)-one]

Compound | IC50 [nM]
Cn1c(CN2Cc3ccccc3C2)ccc(OCC2CCN(S(=O)(=O)C3COC3)CC2)c1=O [Compound 6] | 1.94
